Measurements as given in PubChem BioAssay (NCI).
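Where inhibition never reached the appropriate level, the endpoint shown equals the highest concentration tested. Otherwise, values were interpolated linearly from a five-concentration, 48-hour dose response in 96-well plates. GI50: concentration for 50% inhibition of growth. TGI marks complete inhibition of growth.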

Tests used:
Assay in all cases: inhibition of tumour cell growth, NCI panel, 48 h
[1] = system: CCRF-CEM leukemia
[2] = system: RPMI-8226 leukemia
[3] = system: SF-539 CNS
[4] = system: A549 NSCLC
[5] = system: HL-60(TB) leukemia
[6] = system: OVCAR-3 ovarian
[7] = system: T-47D breast
[8] = system: HOP-92 NSCLC
[9] = system: MOLT-4 leukemia
[10] = system: NCI-H460 lung

Row | SMILES | GI50 [1] [µM] | TGI [1] [µM] | GI50 [2] [µM] | TGI [2] [µM] | GI50 [3] [µM] | TGI [3] [µM] | GI50 [4] [µM] | TGI [4] [µM] | GI50 [5] [µM] | TGI [5] [µM] | GI50 [6] [µM] | TGI [6] [µM] | GI50 [7] [µM] | TGI [7] [µM] | GI50 [8] [µM] | TGI [8] [µM] | GI50 [9] [µM] | TGI [9] [µM] | GI50 [10] [µM] | TGI [10] [µM]
1 | CCOc1c(Br)cc(C2C(C(=O)OC)=CN(C)C=C2C(=O)OC)cc1OC | 40.1 | > 100 | 45.5 | > 100 | > 100 | > 100 | 47.8 | > 100 | 37.8 | > 100 | 45.6 | > 100 | 45.9 | > 100 | 33.4 | > 100 | 38.9 | > 100 | 58.1 | > 100
2 | N#C/C(=C\c1ccc(-c2ccc(Cl)cc2)o1)C(=O)Nc1ncc(Cc2ccc(Cl)cc2)s1 | 2.21 | > 100 | 4.45 | > 100 | 1.66 | 3.84 | 1.33 | 3.05 | > 100 | > 100 | 1.41 | 3.14 | 1.91 | 5.2 | 1.97 | 7.11 | 3.75 | > 100 | 0.983 | 2.46
3 | Oc1ccc2cc(Br)ccc2c1-c1c(O)ccc2cc(Br)ccc12 | 3.31 | 12 | 2.81 | 9.1 | 3.34 | 12 | 3.78 | 13.1 | 2.87 | 8.6 | 3.21 | 9.77 | 4.61 | 17.3 | 3.01 | 7.93 | 2.83 | 11 | 3.76 | 15
4 | Cc1cc(N2CCCCC2)nc(N(CCCNc2ccnc3cc(Cl)ccc23)Cc2ccco2)n1 | 2.01 | 12.6 | 1.83 | 4.46 | 1.61 | 3.19 | 3.34 | 11.2 | 1.94 | 4.51 | 2.02 | 5.01 | 1.77 | 4.44 | 1.38 | 3.95 | 2.45 | 7.18 | 1.8 | 4.23
5 | CC1=NN(c2ccccc2)C(=O)C1N=Nc1ccc([As](=O)(O)O)c(O)c1 (configuration not stated) |  | 92.6 |  | > 100 |  | > 100 |  | > 100 |  | > 100 |  | > 100 |  | > 100 |  | > 100 |  | > 100 |  | > 100
6 | COC(=O)Nc1nc2ccc(Oc3ccc(NC(=O)Nc4cccc(C(=O)O)c4)cc3)cc2[nH]1 | 7.02 | > 25 | 8.03 | > 25 | 4.95 | > 20.9 | 10.5 | > 25 | 6.1 | 17.4 | 4.41 | 10.5 | > 14.2 | > 25 | > 25 | > 25 | 9.99 | > 25 | 7.21 | > 25
7 | C=C1C(=O)O[C@@H]2C[C@@]3(C)CCC[C@H](C)C3=C[C@H]12 |  | 9.94 |  | 6.21 |  | 22.5 |  | 31 |  | 5.52 |  | 19.5 |  | 9.36 |  | 11.2 |  | 4.8 |  | 31.7
8 | COc1cc(O)c2c(O)c3c(c4c2c1[C@]1(C4)C(C)=CCCC1(C)C)[C@H](O)[C@@]1(O)CC(=O)C(C(N)=O)=C(O)[C@@]1(O)C3=O |  | 0.185 |  | 1.18 |  | 0.965 |  | 1.38 |  | 0.485 |  | 1.38 |  | 1.81 |  | 1.6 |  | 1.76 |  | 0.664
9 | Cc1cc2c(cc1Cl)SC1=CC(=O)N(c3ccccc3)C1=NS2(=O)=O | 24.8 | 95.5 | 14.4 | 36.5 |  |  | > 100 | > 100 | 23.8 | 63.8 | > 100 | > 100 | 13 | 65.1 | 34.3 | > 100 | 31.7 | > 100 | 59.5 | > 100
10 | CCCN(CCC)C(=O)C1=Cc2ccc(-c3ccc(C(=O)N4CCCC4)cc3)cc2N=C(N)C1 | 10.6 | 74.4 | 7.66 | 36.4 | 11.7 | 27 | 7.69 | 35.3 | 3.46 | 15.6 | 8.19 | 26.2 | 3.56 | 26.8 | 7.99 | 54.3 | 10.5 | 64.3 | 4.46 | 17.4
11 | O=C1NN(c2ccc(C(=O)O)cc2)C(=O)/C1=C\c1ccc([N+](=O)[O-])o1 | 22.7 | 61.8 | 30.6 | 83.8 | > 100 | > 100 | > 100 | > 100 | 34.5 | 91.7 | 20.9 | 42.3 | 21.4 | 50 | 29 | 74.8 | 33.4 | > 100 | > 100 | > 100
12 | COc1ccc(N(CC(=O)NCCC[Te]c2ccccc2)C(=O)c2ccccc2)cc1 |  |  | 3.18 | 19.2 | 2.3 | 6 | 0.382 | 2.14 | 2.12 | 5.73 | 5.75 | 19.8 | 3.4 | 21.6 | 4.1 |  | 3.51 | 17.5 | 0.543 | 2.37
13 | COc1cc2nc3sc(C(=O)Nc4ccc(C(=O)OC(C)C)cc4)c(C(=O)Nc4ccc(Cl)cc4C)n3c(=O)c2cc1OC | 4.66 | 30.2 | 16 | 78.6 | 23.2 | 80.8 | 0.824 | > 100 | 7.59 | 35.2 | 2.66 | 10.6 | 5.59 | 54.6 | 10.7 | 30.6 | 2.87 | 18.9 | 3.05 | > 100
14 | O=[N+]([O-])c1ccc(Br)c([N+](=O)[O-])c1 | 1.79 | 6.83 | 2.36 | 5.51 | 2.06 | 5.01 | 4.12 | 16.4 | 1.41 | 3.54 | 1.88 | 3.38 | 2.13 | 4.94 | 1.94 | 4.02 | 2.52 | 6.71 | 2.56 | 8.72
15 | COc1cc2c3c(n(CCCCOC(=O)C(F)(F)F)c(=O)c2cc1OC)-c1cc2c(cc1C3=O)OCO2 | 5.01 | > 100 | > 20.4 | > 100 | > 100 | > 100 | > 100 | > 100 | > 100 | > 100 | > 89.8 | > 100 | > 100 | > 100 | > 82.9 | > 100 | 10.1 | > 77.3 |  | > 100
16 | COc1ccc(CCN2C(=O)C=CC2=O)cc1OC |  | 2.93 |  | 3.18 |  | 31.3 |  | 50.2 |  | 21.5 |  | 36.4 |  | 31.9 |  | 40.1 |  | 5.49 |  | 46.8
17 | Cn1cc(-c2nc(-c3c[nH]c4ncccc34)cs2)c2cc(F)ccc21 | 3.04 | > 52.6 | 2.81 | 48.3 | 3.8 | 15.3 | 2.81 | > 25.6 | 3.21 | 15.6 | 3.02 | 8.25 | 0.0443 | 4.43 | 1.92 | 5.79 | 3.16 | 17 | 1.89 | 6.72
18 | Nc1nc(N)c(N=O)c(Nc2ccc(O)cc2)n1 |  | > 100 |  | > 68.2 |  | 16.3 |  | > 100 |  | > 71.3 |  | > 100 |  | > 96.1 |  | > 100 |  | > 60.9 |  | > 100
19 | CCOc1cccc(/C=N/NC(=O)c2ccc(Nc3ccnc(C(F)(F)F)c3)cc2)c1O | 0.332 | 8.36 | 0.359 | 20.6 | 1.1 | 11.6 | 2.13 | > 69.1 | 1.33 | 5.47 | 0.298 | 28 | 0.984 | 19.4 | 1.01 | > 64.2 | 0.244 |  | 0.492 | 13.6
20 | Cn1cc(C2=C(c3cccc4ccccc34)C(=O)NC2=O)c2ccccc21 | 8.3 | 24.5 | 8.18 | > 19.9 | 5.99 | 14.2 | 7.63 | > 25 | 10.4 | > 25 | 6.06 | 14.4 | 6.32 | 24.5 | 8.46 | 24.3 | 7.9 | > 22.5 | 8.2 | > 25
21 | O=C(CN1CCN(c2ncnc3ccccc23)CC1)Nc1ccc(Cl)cc1C(=O)c1ccccc1Cl | 0.791 | > 43.8 | 0.561 | > 22.2 | 0.383 | 1.3 | 2.66 | > 100 | 0.415 |  | 0.273 | 0.824 | 0.339 | 3.25 | 0.542 | 15.4 | 0.472 |  | 0.598 | 11.6
22 | C1=Cc2ccccc2Nc2ccccc21 | > 100 | > 100 | > 100 | > 100 | > 100 | > 100 | > 100 | > 100 | > 100 | > 100 | > 100 | > 100 | > 100 | > 100 | 86.1 | > 100 | > 100 | > 100 | > 100 | > 100
23 | O=c1c2cccc(Cl)c2sc2c(NCCCNCCO)nc3ccccc3c12 | 2.34 | 8.39 | 2.1 | 5.45 | 1.67 | 3.32 | 1.31 | 3.39 | 2.4 | 5.49 | 2.28 | 6.19 | 2.2 | 23 | 1.26 | 7.82 | 2.12 | 5.19 | 1.01 | 2.32
24 | COc1ccc2c(c1)c(-c1ccc(-c3cn(S(=O)(=O)c4ccccc4)c4ccc(OC)cc34)s1)cn2S(=O)(=O)c1ccccc1 | > 100 | > 100 | > 100 | > 100 | > 100 | > 100 | > 100 | > 100 | > 100 | > 100 | > 100 | > 100 | > 100 | > 100 | > 100 | > 100 | > 100 | > 100 | > 100 | > 100
25 | COc1ccc2c(c1)C(=O)/C(=C/c1cccc(OCC(=O)Nc3nc4c(s3)CCCC4)c1)O2 | 0.863 | > 100 |  |  | 1.32 | 2.69 | 3.31 | 18.5 | 0.241 | 0.681 | 0.304 | 0.865 | 1.93 | 4.34 | 0.18 | 0.372 | 0.93 | > 100 | 3.48 | 13.4
26 | CC1=C[C@H]2c3c(c(O)c(O)c4oc5c(C)cccc5c(=O)c34)[C@H](c3cc(O)c(O)c4oc5c(C)cccc5c(=O)c34)[C@H]2C(C)(C)C1 | 0.65 | 10.4 |  |  | 1.67 | 3.65 | 1.04 | 4.85 | 3 | 9.23 | 1.52 | 9.34 | 2.51 | 14.1 | 2.39 | 6.69 | 1.06 | 31 | 0.825 | 3.02
